These results are taken from US12391919B2, “Culture medium, coating matrix and method for maturing midbrain dopaminergic progenitor cells” (NUWACELL BIOTECHNOLOGIES CO., LTD., priority 2022, dated 2025).

Holding throughout (type): cell-based, human
The test system of experiment [1] is imDAPs. Briefly: imDAP expansion: cell morphology, cell number (Vi-cell cytometer), expansion fold, Population Doubling Time. The method, then:
imDAPs were produced according to the method described in CN201910169525.0. The imDAPs (P0) were seeded on VTN-coated plates (1 μg/cm^2) at a density of 1×10^5 cells/cm^2 in the expansion medium (50% DMEM/F12, 50% Neurobasal™ medium, 1% (v/v) Glutamax, 2% (v/v) B27 (50×), 0.2 μM LDN193189, 3 μM CHIR99021, 100 ng/mL FGF8b) in the absence or presence of 5 μM Blebbistatin. In case where Blebbistatin is present, Blebbistatin was either removed 24 hrs after plating or present throughout the culture period. The medium was changed every day for 5 days.
imDAPs were produced according to the method described in CN201910169525.0. The imDAPs (P0) were seeded on VTN-coated plates (1 μg/cm^2) at a density of 1×10^5 cells/cm^2 in the expansion medium (50% DMEM/F12, 50% Neurobasal™ medium, 1% (v/v) Glutamax, 2% (v/v) B27 (50×), 3 μM CHIR99021, 100 ng/mL FGF8b, […]) in the absence or presence of 0.2 μM LDN193189. The medium was changed every day for 5 days.
imDAPs were produced according to the method described in CN201910169525.0. The imDAPs (P0) were seeded on VTN-coated plates (1 μg/cm^2) at a density of 1×10^5 cells/cm^2 in the expansion medium (50% DMEM/F12, 50% Neurobasal™ medium, 1% (v/v) Glutamax, 2% (v/v) B27 (50×), 0.2 μM LDN193189, 3 μM CHIR99021, 100 ng/mL FGF8b, 5 μM Blebbistatin). The medium was changed every day. When imDAPs reach 100% confluence (4-5 days), cells were passaged enzymatically with 1× TrypLE, centrifuged at 250 g for 5 minutes, counted and replaced on new VTN-coated plates (1 μg/cm^2) at a density of 1×10^5 cells/cm^2 in the expansion medium. imDAPs were continuously expanded for 6 passages. At each passage, imDAPs were harvested at an expansion fold 5˜10 (over the initial number of imDAPs plated).
imDAPs were produced according to the method described in CN201910169525.0. The imDAPs (P0) were seeded on DLL4-coated ([…]), VTN-coated (1 μg/cm^2) and DLL4/VTN-coated ([…]) plates at a low density of 1×10^4 cells/cm^2 respectively, and cultured in the expansion medium in the absence or presence of 5 µM SB431542. Medium was replaced every 3rd day until reaching 100% confluence (6 days) for cell collection. The typical cell morphology on day 4 was recorded (FIG. 4A). The cell number of each group was counted by Vi-cell cytometer (FIG. 4B). The cells of each group were stained with Foxa2-PE antibody (BD, #561589), the percentage of Foxa2+ imDAPs were analyzed by flow cytometry (FIG. 4C). The expansion medium used in this example contained the following components: 50% DMEM/F12, 50% Neurobasal™ medium, 1% (v/v) Glutamax, 1% (v/v) B27, 50 μg/ml ascorbic acid, 0.2 μM LDN193189, 100 ng/ml FGF8b, 3 μM CHIR99021 and 10 μM Y27632.
imDAPs were produced according to the method described in CN201910169525.0. The imDAPs (P0) were seeded on DLL4/VTN-coated (1 μg/cm^2 for each) plates at a low density of 1×10^4 cells/cm^2, and cultured in the expansion medium (EM1, EM2, EM3, EM4). Medium was replaced every 3rd day until reaching 100% confluence (6 days) for cell collection. EM1 used in Example 9 contained the following components: 50% DMEM/F12, 50% Neurobasal™ medium, 1% (v/v) Glutamax, 1% (v/v) B27 (50×), […], 3 μM CHIR99021, 5 μM SB431542 and 10 μM Y27632. EM2 used in Example 9 contained the following components: 50% DMEM/F12, 50% Neurobasal™ medium, 1% (v/v) Glutamax, 1% (v/v) B27 (50×), 50 μg/ml ascorbic acid, […] LDN193189, 3 μM CHIR99021, 5 μM SB431542 and 10 μM Y27632. EM3 used in Example 9 contained the following components: 50% DMEM/F12, 50% Neurobasal™ medium, 1% (v/v) Glutamax, 1% (v/v) B27 (50×), 50 μg/mL ascorbic acid, […], 100 ng/ml FGF8b, 3 μM CHIR99021, 5 μM SB431542 and 10 μM Y27632. EM4 used in Example 9 contained the following components: 50% DMEM/F12, 50% Neurobasal™ medium, 1% (v/v) Glutamax, 1% (v/v) B27 (50×), 50 μg/ml ascorbic acid, 0.2 μM LDN193189, 10 ng/ml FGF2, 3 μM CHIR99021, 5 μM SB431542 and 10 μM Y27632. […]

Experiment [2] deals with imDAPs. The experiment in a line: imDAP maturation: cell morphology, adhesion and cell yield. Particulars: Example 12; 1 μM IWR1 for at least 3 days; day 7; FIG. 7D. How it is done:
imDAPs were produced according to the method described in CN201910169525.0, and expanded as described in Example 10. […] MM-H used in Example 11 contained the following components: Neurobasal™ medium, 1% (v/v) Glutamax, 0.5 mM Db-cAMP sodium salt, 200 μM ascorbic acid, 20 ng/ml BDNF, 20 ng/ml GDNF, 1 ng/ml TGF-β3, 10 μM DAPT, HhPLT (0.5%, 1%, 2%). MM-B used in Example 11 contained the following components: Neurobasal, 1% (v/v) Glutamax, 0.5 mM Db-cAMP sodium salt, 200 μM ascorbic acid, 20 ng/ml BDNF, 20 ng/ml GDNF, 1 ng/ml TGF-β3, 10 μM DAPT, 2% (v/v) B27 (50×) (as control). The above HhPLT was produced from hPLT as follows. The hPLT was centrifuged at 3000 g for 30 min at 4° C. to obtain the supernatant, which was heated to 56° C. for 30 min. The suspension was finally cooled down to 4° C. at least 5 min, and spun at 3000 g for 30 min at 4° C. to obtain the HhPLT supernatant. Aliquots were prepared and stored at −80° C. until use. The above Medium was changed every 3rd day. On day 7, the imDAPs at early maturation stage were dissociated enzymatically with 1× TrypLE, centrifuged at 250 g for 5 minutes.
imDAPs were produced according to the method described in CN201910169525.0, and expanded as described in Example 10. […] Medium was changed every 3rd day. On day 7, the imDAPs at early maturation stage were dissociated enzymatically with 1× TrypLE, centrifuged at 250 g for 5 minutes. Cells were collected for RT-qPCR analysis of EN1, LMX1A, FOXA2, NURR1, SOX6 and TH gene expression. The maturation medium used in Example 12 contained the following components: Neurobasal™ medium, 1% (v/v) Glutamax, 1% (v/v) HhPLT, 0.5 mM Db-cAMP sodium salt, 200 μM ascorbic acid, 20 ng/mL BDNF, 20 ng/mL GDNF, 1 ng/mL TGF-β3, 10 μM DAPT.
imDAPs were produced according to the method described in CN201910169525.0, and expanded as described in Example 10. […] Cells were collected and counted by Vi-cell cytometer. The cells were analyzed by RT-qPCR for EN1, LMX1A, FOXA2, NURR1, SOX6 and TH gene expression. […]

Experiment [3] relates to imDAPs. The experiment in a line: Flow cytometry (FACS) analysis of FOXA2 expression in expanded imDAPs. The settings on record: Example 8; VTN or DLL4/VTN coating, with or without SB431542; FIG. 4C. How it is done:
• 1. Individualize and collect cells by either Accutase or TrypLE treatment. • 2. Wash cells with 1 ml PBS and pellet cells at 250×g for 15 sec. • 3. Remove supernatant, add ˜200 μl of 4% PFA, mix and fix for 10 min at RT. • 4. Pellet cells at 350×g for 5 min. • 5. Wash cells by 1 ml of FACS buffer and pellet cells at 350×g for 5 min. • 6. Remove supernatant, add 200 μl/tube of FACS buffer/0.1% TritonX, mix for 10 min at RT. • 7. Wash cells by 1 ml of FACS buffer and pellet cells at 350×g for 5 min. • 8. Remove supernatant, add 200 μl/tube of primary antibody diluted in FACS buffer, mix gently, and incubate for 30 min at RT. • 9. Wash cells by 1 ml of FACS buffer and pellet cells at 350×g for 5 min. • 10. Remove supernatant, and add 200 μl of secondary antibody diluted in FACS buffer, mix gently, and incubate for 30 min at RT. • 11. Wash cells by 1 ml of FACS buffer and pellet cells at 300×g for 5 min. • 12. Remove supernatant, add 200 μl of FACS buffer, and run samples on the flow cytometry. (2) qRT-PCR • 1. For qRT-PCR analysis of mRNA gene expression, RNA should be harvested from at least 2×10^6 cells. • 2. Harvest cells, add 350 μl of buffer RLT+1% (vol/vol) s-mercaptoethanol to the well, transfer the lysate to a 1.5 ml tube, and put it immediately on ice. • 3. Perform RNA extraction using the Tiangen Kit (DP430), and follow the manufacturer's protocol ‘Purification of total RNA from animal and human cells’. • 4. When the RNA extraction was completed, determine the RNA concentration using a Nanodrop instrument. • 5. Perform the first-strand cDNA synthesis reaction with 1 μg of RNA using the HiScript TM II Q RT SuperMIX for qPCR(+gDNA wiper) Kit (Vazyme, #R223-01) for RT-qPCR. Follow the manufacturer's ‘First-Strand cDNA Synthesis’ protocol. This reaction would yield a 20 μl product. • 6. Dilute the 10 μl cDNA product in 80 μl of nuclease-free water. • 7. Pipette the diluted cDNA product (1 μl), Sybr green master mix (5 μl, Transgen, #AQ131) and 0.95 μM reverse/forward primer mix (4 μl) into a 384-well PCR plate in triplicate, either manually or using an automated pipetting robot. The complete primer panel included the target genes and the housekeeping gene (RPL13A). In the analysis, also included a sample of undifferentiated hPSCs to determine the gene expression levels relative to the expression in hPSCs. • 8. Analyze the samples by running a quantitative PCR on the LightCycler 480 instrument using a 40× cycle two-step protocol with a 60° C., 60 sec annealing/elongation step and a 95° C., 30 sec denaturation step. The average CT values from the three technical replicates were used for calculations of relative gene expression using the ΔΔCT method. For each gene, calculate the FC of the differentiated samples relative to the undifferentiated control sample using the housekeeping gene for normalization. Next, calculate the average of the FC values on the basis of the housekeeping gene. (3) Immunocytochemical Analysis • 1. Cell fixation: Remove the medium from the cells and wash with PBS. Add 4% (wt/vol) PFA (e.g., 200 μl to a well in a 48-well plate) and incubate at room temperature (RT) for 15 min. after incubation, wash the cells three times in PBS. • 2. Blocking: Remove PBS from the wells and add blocking solution to the cells, add enough volume to cover the cells. Leave the cells in blocking solution for 1 h at RT. • 3. Primary antibodies incubation: Remove the blocking solution from the cells and add the primary antibody solutions (˜100 μl/cm^2). […]

Take `Cc1ccc2c(c1)C(=O)C1(O)CCN(c3ccccc3)C1=N2` (centres unmarked) [Blebbistatin]: the “imDAP expansion (cell morphology)” value in the experiment on imDAPs [1] (Example 1, 5 μM Blebbistatin throughout culture vs no Blebbistatin or plating day only, VTN-coated plates, 5 days, FIG. 1A) is reported as “supported better imDAP expansion”.

Regarding `O=C(Nc1cccc2cccnc12)c1ccc(N2C(=O)[C@@H]3[C@H](C2=O)[C@@H]2C=C[C@H]3C2)cc1` [IWR1], the “cell morphology during maturation” value with imDAPs [2] is “showed more obvious neural fibers”.

With `NC(=O)c1ccc(-c2nc(-c3ccc4c(c3)OCO4)c(-c3ccccn3)[nH]2)cc1` [SB431542], the “FOXA2 expression (percentage of Foxa2+ imDAPs)” value with imDAPs [3] is “could improve FOXA2 expression”.

For the molecule “FGF2: fibroblast growth factor, used at 10 ng/ml”, in the experiment on imDAPs [1] (Example 9), the “imDAP expansion (overall conclusion)” value is given as “had no additional effects on imDAP expansion”. Also, the “cell morphology of expanded imDAPs” value in the experiment on imDAPs [1] (Example 9, 10 ng/ml FGF2 (EM4), DLL4/VTN-coated, day 5, FIG. 5A) was “some obvious heterogeneous cells were observed”.
